Measured values from patent US20260234115A1, “LIPID COMPOUNDS, COMPOSITIONS, AND USES THEREOF” (Liberate Bio, Inc., priority 2023, published 2026).
Marks after values point to notes of the source that are not given here.

How the values were obtained:
[1] = Dynamic light scattering: LNP particle size and PDI; type: physicochemical; conditions: for Particle Size (nm) / PDI: LNP compositions for in vivo mouse study; for Particle Size (nm): four formulations (F1-F4) of the lipid compound pooled, or pools of four compounds (sixteen compositions); for PDI: four formulations (F1-F4) pooled, or pools of four compounds; for PDI N/P:6 / Size (nm) N/P:6 / PDI N/P:3 / Size (nm) N/P:3: LNP
Experimental: (§1) Lipids and active ingredients (e.g., RNA, DNA, etc.) were assembled into LNPs using microfluidic mixing. An ethanol phase was prepared by solubilizing ionizable lipids (i.e., lipid compounds), phospholipids (e.g., DSPC), cholesterol, and PEG lipids in ethanol, at predetermined mol % ratios given in Table 2. An aqueous phase was prepared by diluting a nucleic acid cargo (e.g., firefly luciferase mRNA) in an acidified buffer (pH 4.0 citrate buffer, 50 mM). A chip with microfluidic mixing architecture (e.g., toroidal mixer) was used to mix the two phases at predetermined flow rate ratios (e.g., 9 ml/min for the aqueous phase and 3 ml/min for the ethanol phase). Resulting LNPs comprising the lipids and encapsulating the nucleic acid cargo were dialyzed against PBS pH 7.4 for 2 hours at room temperature in a 20 kDa MWCO dialysis membrane. Then, PBS was refreshed to continue dialysis overnight at 2-8 TC. Upon completion of the buffer exchange, LNPs were optionally concentrated using a ultracentrifugal unit with a 10-100 kDa MWCO membrane.
d. Dynamic Light Scattering
LNPs were diluted with PBS pH 7.4 to predetermined dilution ranges based on the process step and LNP concentration. Following mixing, the particle size and PDI were measured by a dynamic light scattering instrument.

[2] = Plate-based fluorescence (RiboGreen) assay: nucleic acid cargo content and encapsulation efficiency of LNPs; type: physicochemical; conditions: for EE % / mRNA Content: LNP compositions for in vivo mouse study, four formulations (F1-F4) pooled, or pools of four compounds; for EE (%) N/P:6 / EE (%) N/P:3: LNP
Experimental: as §1
c. Plate-Based Fluorescence (RiboGreen) Assay
Nucleic acid cargos in the LNPs were quantified by RiboGreen assay, against a nucleic acid standard curve. LNPs encapsulating nucleic acid cargo were mixed with 1× Tris-EDTA (TE) and 2% triton in TE, separately, to achieve dilutions required by the assay. Then, the samples were heated at 30° C. and vortexed at 300 rpm. Samples were plated into 96-well plates and RiboGreen reagent was added into each well. Following incubation in the dark, fluorescence was measured from the wells, and plotted against the standard curve. Nucleic acid concentration obtained from the Triton-treated samples were used for total cargo concentration quantification. Only TE diluted sample fluorescence values were used to determine the non-encapsulated (free) cargo, and their ratio was used to determine the encapsulation efficiency (EE %).

[3] = system: mouse organs; test: In vivo activity screening in mice: organ mean total flux (p/s) of luciferase activity after injection of F2 LNP pools (Table 6, FIG. 7A-7C); conditions: Mouse 1, dose 0.3 mg/kg, luciferase mRNA
Summary of the method: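 C57BL/6J mice given one tail-vein injection of pooled Formulation F2 LNPs carrying firefly luciferase mRNA (0.25-3 mg/kg) in PBS. At 4-6 h, s.c. D-luciferin given; organs imaged ex vivo by IVIS within 10-15 min, after saline cardiac perfusion. Mean total flux (p/s) per organ ROI.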

| SMILES | Particle Size (nm) [1] [nm] | PDI [1] | PDI N/P:6 ([1]; Formulation F1, N/P 6) | Size (nm) N/P:6 ([1]; Formulation F1, N/P 6) [nm] | PDI N/P:6 ([1]; Formulation F2, N/P 6) | Size (nm) N/P:6 ([1]; Formulation F2, N/P 6) [nm] | PDI N/P:6 ([1]; Formulation F3, N/P 6) | Size (nm) N/P:6 ([1]; Formulation F3, N/P 6) [nm] | PDI N/P:6 ([1]; Formulation F4, N/P 6) | Size (nm) N/P:6 ([1]; Formulation F4, N/P 6) [nm] | EE % [2] [%] | mRNA Content [2] [µg/mL] | EE (%) N/P:6 ([2]; Formulation F1, N/P 6) [%] | EE (%) N/P:6 ([2]; Formulation F2, N/P 6) [%] | EE (%) N/P:6 ([2]; Formulation F3, N/P 6) [%] | EE (%) N/P:6 ([2]; Formulation F4, N/P 6) [%] | Organ Mean Total Flux Femur [3] | Organ Mean Total Flux Heart [3] | Organ Mean Total Flux Kidney [3] | Organ Mean Total Flux Liver [3] | other results |
| --- | --- | --- | --- | --- | --- | --- | --- | --- | --- | --- | --- | --- | --- | --- | --- | --- | --- | --- | --- | --- | --- |
| CCCCC/C=C\C/C=C\CCCCCCCC(=O)OCC(COC(=O)CCCCCCC/C=C\C/C=C\CCCCC)(COC(=O)CCCCCCC/C=C\C/C=C\CCCCC)COC(=O)CCC(CCCCCC)OC(=O)NCCN1CCCC1 (stereo not drawn) [Compound 2, 2-((((9Z,12Z)-octadeca-9,12-dienoyl)oxy)methyl)-2-(((4-(((2-(pyrrolidin-1-yl)ethyl)carbamoyl)oxy)decanoyl)oxy)methyl)propane-1,3-diyl (9Z,9′Z,12Z,12′Z)-bis(octadeca-9,12-dienoate)] | 82.3 | 0.11 | 0.16 | 75 ± 8 | 0.04 | 84 ± 1 | 0.04 | 91 ± 0 | 0.18 | 65 ± 2 | 96 | 86 | 98 | 98 | 98 | 97 | 0.8 p/s (×10^6) | 0.2 p/s (×10^6) | 0.7 p/s (×10^6) | 99.8 p/s (×10^6) | Organ Mean Total Flux Lung [3]: 2.6 p/s (×10^6); Organ Mean Total Flux Muscle [3]: 0.5 p/s (×10^6); Organ Mean Total Flux Pancreas [3]: 0.2 p/s (×10^6); Organ Mean Total Flux Spleen [3]: 15.6 p/s (×10^6) |
| CCCCCCCC/C=C\CCCCCCCC(=O)OCC(COC(=O)CCCCCCC/C=C\CCCCCCCC)(COC(=O)CCC(CCCCCC)OC(=O)NCCN1CCCC1)COC(=O)CC12CC3CC(CC(C3)C1)C2 (stereo not drawn) [Compound 3, [2-[[2-(1-adamantyl)acetyl]oxymethyl]-2-[[(Z)-octadec-9-enoyl]oxymethyl]-3-[4-(2-pyrrolidin-1ylethylcarbamoyloxy)decanoyloxy]propyl](Z)-octadec-9-enoate] | 89.1 | 0.08 | 0.09 | 74 ± 1 | 0.01 | 92 ± 1 | 0.07 | 102 ± 1 | 0.14 | 73 ± 1 | 96 | 83 | 98 | 99 | 98 | 98 | 1.3 p/s (×10^6) | 0.1 p/s (×10^6) | 0.1 p/s (×10^6) | 29.1 p/s (×10^6) | Organ Mean Total Flux Lung [3]: 0.7 p/s (×10^6); Organ Mean Total Flux Muscle [3]: 0.5 p/s (×10^6); Organ Mean Total Flux Pancreas [3]: 0.2 p/s (×10^6); Organ Mean Total Flux Spleen [3]: 1.4 p/s (×10^6) |
| CCCCCCCC/C=C\CCCCCCCC(=O)OCC(COC(=O)CCCCCCC/C=C\CCCCCCCC)(COC(=O)CCC(CCCCCC)OC(=O)NCCN1CCCC1)COC(=O)CCC(OCCCCCCCC)OCCCCCCCC (stereo not drawn) [Compound 4, [2-(4,4-dioctoxybutanoyloxymethyl)-2-[[(Z)-octadec-9-enoyl]oxymethyl]-3-[4-(2-pyrrolidin-1-ylethylcarbamoyloxy)decanoyloxy]propyl](Z)-octadec-9-enoate] | 93.4 | 0.022 | 0.063 | 78 ± 2 | 0.069 | 93 ± 1 | 0.08 | 108 ± 2 | 0.12 | 73 ± 2 | 99 | 99.1 | 100 | 100 | 100 | 100 | 15.6 p/s (×10^6) | 4.4 p/s (×10^6) | 0.8 p/s (×10^6) | 105.0 p/s (×10^6) | PDI N/P:3 ([1]; Formulation F1, N/P 3): 0.092; Size (nm) N/P:3 ([1]; Formulation F1, N/P 3): 86 ± 10 nm; PDI N/P:3 ([1]; Formulation F2, N/P 3): 0.041; Size (nm) N/P:3 ([1]; Formulation F2, N/P 3): 97 ± 1 nm; PDI N/P:3 ([1]; Formulation F3, N/P 3): 0.089; Size (nm) N/P:3 ([1]; Formulation F3, N/P 3): 116 ± 6 nm; PDI N/P:3 ([1]; Formulation F4, N/P 3): 0.068; Size (nm) N/P:3 ([1]; Formulation F4, N/P 3): 73 ± 0 nm; EE (%) N/P:3 ([2]; Formulation F1, N/P 3): 98%; EE (%) N/P:3 ([2]; Formulation F2, N/P 3): 98%; EE (%) N/P:3 ([2]; Formulation F3, N/P 3): 94%; EE (%) N/P:3 ([2]; Formulation F4, N/P 3): 98%; Organ Mean Total Flux Lung [3]: 39.9 p/s (×10^6); Organ Mean Total Flux Muscle [3]: 18.4 p/s (×10^6); Organ Mean Total Flux Pancreas [3]: 5.0 p/s (×10^6); Organ Mean Total Flux Spleen [3]: 17.6 p/s (×10^6) |
| CCCCC/C=C\C/C=C\CCCCCCCC(=O)OCC(COC(=O)CCCCCCC/C=C\C/C=C\CCCCC)(COC(=O)CCC(CCCCCC)OC(=O)NCCN1CCCC1)COC(=O)CCC(OCCCCCCCC)OCCCCCCCC (stereo not drawn) [Compound 6, [2-(4,4-dioctoxybutanoyloxymethyl)-2-[[(9Z,12Z)-octadeca-9,12-dienoyl]oxymethyl]-3-[4-(2-pyrrolidin-1-ylethylcarbamoyloxy)decanoyloxy]propyl](9Z,12Z)-octadeca-9,12-dienoate] | 77.9 | 0.107 | 0.172 | 69 ± 3 | 0.012 | 83 ± 1 | 0.078 | 85 ± 1 | 0.081 | 63 ± 1 | 99 | 100.1 | 100 | 100 | 100 | 100 | 6.1 p/s (×10^6) | 2.1 p/s (×10^6) | 1.3 p/s (×10^6) | 2966 p/s (×10^6) | PDI N/P:3 ([1]; Formulation F1, N/P 3): 0.09; Size (nm) N/P:3 ([1]; Formulation F1, N/P 3): 77 ± 2 nm; PDI N/P:3 ([1]; Formulation F2, N/P 3): 0.027; Size (nm) N/P:3 ([1]; Formulation F2, N/P 3): 89 ± 2 nm; PDI N/P:3 ([1]; Formulation F3, N/P 3): 0.059; Size (nm) N/P:3 ([1]; Formulation F3, N/P 3): 105 ± 5 nm; PDI N/P:3 ([1]; Formulation F4, N/P 3): 0.084; Size (nm) N/P:3 ([1]; Formulation F4, N/P 3): 65 ± 1 nm; EE (%) N/P:3 ([2]; Formulation F1, N/P 3): 99%; EE (%) N/P:3 ([2]; Formulation F2, N/P 3): 99%; EE (%) N/P:3 ([2]; Formulation F3, N/P 3): 95%; EE (%) N/P:3 ([2]; Formulation F4, N/P 3): 98%; Organ Mean Total Flux Lung [3]: 17.6 p/s (×10^6); Organ Mean Total Flux Muscle [3]: 8.3 p/s (×10^6); Organ Mean Total Flux Pancreas [3]: 2.1 p/s (×10^6); Organ Mean Total Flux Spleen [3]: 14.1 p/s (×10^6) |
